Results: publication PMC4718910 (SpringerPlus, 2016)
Like-named read-outs stand apart in the source and are kept apart here.

Assays:
ER/PgR/HER2-positive MBC = test system: ER/PgR/HER2-positive MBC; design: method as in Kaufman et al. [2009]; settings: N 207, ref Kaufman et al. [2009]; cited from earlier work
[1] = test system: ER/PgR-positive HER2-negative MBC; design: method as in Bachelot et al. [2012]; settings: aromatase inhibitor-resistant, N 111; ref Bachelot et al. [2012]; cited from earlier work
[2] = test system: HER2-positive metastatic breast cancer (MBC); design: method as in Lin et al. [2012]; settings: afatinib monotherapy 50 mg/day, heavily pre-treated HER2-positive MBC after trastuzumab; ref Lin et al. [2012]; cited from earlier work
[3] = Afatinib plasma pharmacokinetics (HPLC-MS/MS); format: in vivo, human; settings: for AUC / Tmax: human, plasma, po; for AUC: read-out: AUCtau,ss, geometric mean; for Tmax: read-out: tmax,ss, median
ErbB3 = test system: ErbB3; design: method as in Li et al. [2008]; settings: ref Li et al. [2008]; cited from earlier work
[4] = Letrozole plasma pharmacokinetics (HPLC-MS/MS); format: in vivo, human
Procedure: For quantification of drug plasma concentrations, 5 mL of venous blood was collected. […] Letrozole plasma concentrations were determined by a validated HPLC–MS/MS assay at Nuvisan Pharma Services GmbH & Co. KG, Neu-Ulm, Germany.

ErbB4 = settings: read-out: half maximal inhibitory concentration, ErbB4; ref Li et al. [2008]; cited from earlier work
HER2 = settings: read-out: half maximal inhibitory concentration, HER2; ref Li et al. [2008]; cited from earlier work
ER/PgR-positive MBC = test system: ER/PgR-positive MBC; design: method as in Huober et al. [2012]; settings: ref Huober et al. [2012], cited from earlier work
[5] = Afatinib 30 mg multiple oral administrations with letrozole 2.5 mg, N 5
[6] = Afatinib 40 mg multiple oral administrations with letrozole 2.5 mg, N 4
[7] = ER/PgR-positive HER2-negative MBC, N 35

## CC(C)(C#N)c1cc(Cn2cncn2)cc(C(C)(C)C#N)c1 [Anastrozole]
ER/PgR/HER2-positive MBC
  Median PFS (independent assessment): 2.4 (independent assessment) months

## CC/C(=C(\c1ccccc1)c1ccc(OCCN(C)C)cc1)c1ccccc1 [Tamoxifen]
[1]
  Clinical benefit rate: Clinical benefit rate = 42%

## CN(C)C/C=C/C(=O)Nc1cc2c(Nc3ccc(F)c(Cl)c3)ncnc2cc1O[C@H]1CCOC1 [Afatinib]
[2]
  Median PFS: 15 weeks
  overall survival (OS): 61 weeks
[3]; Afatinib 30 mg with letrozole 2.5 mg, pre-dose day 1 of cycle 3, N 8
  Cpre,ss, 57, geometric mean: 15.8 ng/mL
[3]; Afatinib 30 mg with letrozole 2.5 mg, pre-dose day 1 of cycle 4, N 5
  Cpre,ss, 85, geometric mean: 17.3 ng/mL
[3]; Afatinib 40 mg with letrozole 2.5 mg, pre-dose day 1 of cycle 3, N 5
  Cpre,ss, 57, geometric mean: 21.4 ng/mL
[3]; Afatinib 40 mg with letrozole 2.5 mg, pre-dose day 1 of cycle 4, N 4
  Cpre,ss, 85, geometric mean: 16.9 ng/mL
[3]; [5]
  AUC: 579 ng·h/mL
  Tmax: 4 h
[3]; [6]
  AUC: 660 ng·h/mL
  Tmax: 2 h
ErbB3
  ErbB3 transphosphorylation: inhibits ErbB3 transphosphorylation
[4]; letrozole trough and 2-h post-dose plasma concentrations, screening period vs afatinib treatment period
  effect of afatinib on letrozole exposure: no effect
ErbB4
  IC50: […]
HER2
  IC50: 14 nM

## N#Cc1ccc(C(c2ccc(C#N)cc2)n2cncn2)cc1 [Letrozole]
ER/PgR-positive MBC; [7]
  Grade ≥3 bone pain: Bone pain 6%
  Median PFS: 15.2 months
ER/PgR-positive MBC; ER/PgR/HER2-positive MBC, first-line
  Median PFS: 3.3 months
ER/PgR-positive MBC; ER/PgR/HER2-positive MBC
  Grade ≥3 bone pain: 7%
  Grade ≥3 dyspnea: 7%
[4]; human, plasma, oral, 2.5 mg, read-out: geometric mean AUCtau,ss
  AUC: 2420 ng·h/mL
[4]; human, plasma, oral, 2.5 mg, read-out: geometric mean Cmax,ss
  Cmax: 135 ng/mL
